Drawing on patent US12275731B2, “Azaindole inhibitors of wild-type and mutant forms of LRRK2” (DANA-FARBER CANCER INSTITUTE, INC., priority 2018, dated 2025), this text covers remaining binding for three compounds.

What all share (test): KinomeScan profiling
Common to all, as to type: binding

In one assay the target is T1, ACVRL1 (Homo sapiens, UniProt P37023).
T1 construct: purchased KinomeScan®
To be noted: ACVRL1, 1 μM; read-out: % control. Summed up: (§1)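 Selectivity was assessed by binding competition at 1 μM against 468 kinases. Values below 35% of control define an interaction.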

The target of the next assay is NDR2 (Homo sapiens, UniProt Q9Y2H1). To be noted: NDR2, 1 μM; read-out: % control. Summed up: as §1
For another assay, the target named is T2, CDKL5 (Homo sapiens, UniProt O76039).
T2 sequence (O76039 1-960): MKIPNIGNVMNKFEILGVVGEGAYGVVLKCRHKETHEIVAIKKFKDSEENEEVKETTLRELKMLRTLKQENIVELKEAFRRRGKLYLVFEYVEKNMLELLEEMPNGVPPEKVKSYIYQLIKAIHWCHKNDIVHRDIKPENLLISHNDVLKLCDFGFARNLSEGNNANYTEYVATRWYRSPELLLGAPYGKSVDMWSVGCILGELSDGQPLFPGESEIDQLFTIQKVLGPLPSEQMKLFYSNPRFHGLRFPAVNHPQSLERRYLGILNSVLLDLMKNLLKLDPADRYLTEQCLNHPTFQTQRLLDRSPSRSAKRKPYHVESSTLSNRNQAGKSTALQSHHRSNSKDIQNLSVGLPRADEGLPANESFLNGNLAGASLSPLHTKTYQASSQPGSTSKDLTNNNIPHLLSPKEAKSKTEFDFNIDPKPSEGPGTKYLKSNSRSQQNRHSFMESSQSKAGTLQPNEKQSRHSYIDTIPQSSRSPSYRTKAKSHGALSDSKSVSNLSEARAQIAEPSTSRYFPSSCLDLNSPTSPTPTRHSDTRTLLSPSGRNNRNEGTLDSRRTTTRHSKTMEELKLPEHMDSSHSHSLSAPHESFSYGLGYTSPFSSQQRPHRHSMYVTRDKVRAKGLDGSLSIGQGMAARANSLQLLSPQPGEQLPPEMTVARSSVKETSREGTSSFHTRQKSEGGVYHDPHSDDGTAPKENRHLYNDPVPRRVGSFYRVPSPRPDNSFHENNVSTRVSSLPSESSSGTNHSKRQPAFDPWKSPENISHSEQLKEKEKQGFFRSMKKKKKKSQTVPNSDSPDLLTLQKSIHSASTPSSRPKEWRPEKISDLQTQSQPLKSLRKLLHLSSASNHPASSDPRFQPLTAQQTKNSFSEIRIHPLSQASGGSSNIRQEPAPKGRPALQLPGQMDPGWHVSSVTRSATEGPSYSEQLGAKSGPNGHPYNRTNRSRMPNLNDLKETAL
To be noted: CDKL5, 1 μM; read-out: % control. The method in brief: as §1

The target in a further assay is T3, SBK1 (Homo sapiens, UniProt Q52WX2).
T3 construct: purchased KinomeScan® (panel service)
The following applies: SBK1, 1 μM; read-out: % control. Summed up:
as §1

Another assay concerns the target T4, IRAK4 (Homo sapiens, UniProt Q9NWZ3).
T4 construct: purchased KinomeScan®
T4 sequence (Q9NWZ3 1-460): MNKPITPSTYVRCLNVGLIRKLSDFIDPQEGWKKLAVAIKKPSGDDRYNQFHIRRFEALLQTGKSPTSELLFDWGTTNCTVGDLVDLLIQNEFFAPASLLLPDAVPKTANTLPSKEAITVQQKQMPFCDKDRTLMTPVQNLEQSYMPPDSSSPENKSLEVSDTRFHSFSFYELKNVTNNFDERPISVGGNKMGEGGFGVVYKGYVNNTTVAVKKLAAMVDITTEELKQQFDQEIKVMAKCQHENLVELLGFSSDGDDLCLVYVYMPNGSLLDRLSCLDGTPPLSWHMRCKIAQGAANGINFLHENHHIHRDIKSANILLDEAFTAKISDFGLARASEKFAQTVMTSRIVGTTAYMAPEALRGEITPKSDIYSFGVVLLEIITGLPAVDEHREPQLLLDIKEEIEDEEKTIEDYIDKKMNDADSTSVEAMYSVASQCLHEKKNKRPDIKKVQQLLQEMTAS
To be noted: IRAK4, 1 μM; read-out: % control. The method in brief:
as §1

The next assay deals with T5, DDR2 (Homo sapiens, UniProt Q16832).
T5 sequence (Q16832 22-855): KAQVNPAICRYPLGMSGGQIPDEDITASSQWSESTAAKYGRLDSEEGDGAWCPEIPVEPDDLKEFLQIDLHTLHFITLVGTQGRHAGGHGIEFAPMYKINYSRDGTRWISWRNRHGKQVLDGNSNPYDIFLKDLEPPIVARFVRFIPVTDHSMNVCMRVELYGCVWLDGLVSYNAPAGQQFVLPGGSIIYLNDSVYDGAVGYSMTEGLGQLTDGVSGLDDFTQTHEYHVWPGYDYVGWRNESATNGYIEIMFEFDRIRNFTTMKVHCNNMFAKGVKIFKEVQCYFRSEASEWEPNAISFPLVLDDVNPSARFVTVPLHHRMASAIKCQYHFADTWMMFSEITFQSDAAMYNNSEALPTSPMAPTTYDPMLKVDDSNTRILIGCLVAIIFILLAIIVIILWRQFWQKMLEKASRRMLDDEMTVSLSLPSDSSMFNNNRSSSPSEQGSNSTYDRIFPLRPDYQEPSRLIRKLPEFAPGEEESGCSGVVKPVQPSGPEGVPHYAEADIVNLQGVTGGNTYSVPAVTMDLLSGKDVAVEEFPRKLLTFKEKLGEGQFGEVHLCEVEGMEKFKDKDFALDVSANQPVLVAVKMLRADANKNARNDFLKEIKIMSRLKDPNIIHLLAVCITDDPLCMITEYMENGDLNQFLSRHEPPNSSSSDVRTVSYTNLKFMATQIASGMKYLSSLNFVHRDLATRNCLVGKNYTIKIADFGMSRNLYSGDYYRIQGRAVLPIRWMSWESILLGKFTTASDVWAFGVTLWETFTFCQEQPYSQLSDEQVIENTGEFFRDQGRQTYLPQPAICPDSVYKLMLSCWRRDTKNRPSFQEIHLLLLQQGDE
To be noted: DDR2, 1 μM; read-out: % control. The method in brief:
as §1

For another assay, the target named is T6, BLK (Homo sapiens, UniProt P51451).
T6 construct: purchased KinomeScan®
The following applies: read-out: % control. The method in brief: as §1

The target in the next assay is CIT (Homo sapiens, UniProt O14578). To be noted: read-out: % control. The method in brief:
as §1

T1 sequence (P37023 22-503): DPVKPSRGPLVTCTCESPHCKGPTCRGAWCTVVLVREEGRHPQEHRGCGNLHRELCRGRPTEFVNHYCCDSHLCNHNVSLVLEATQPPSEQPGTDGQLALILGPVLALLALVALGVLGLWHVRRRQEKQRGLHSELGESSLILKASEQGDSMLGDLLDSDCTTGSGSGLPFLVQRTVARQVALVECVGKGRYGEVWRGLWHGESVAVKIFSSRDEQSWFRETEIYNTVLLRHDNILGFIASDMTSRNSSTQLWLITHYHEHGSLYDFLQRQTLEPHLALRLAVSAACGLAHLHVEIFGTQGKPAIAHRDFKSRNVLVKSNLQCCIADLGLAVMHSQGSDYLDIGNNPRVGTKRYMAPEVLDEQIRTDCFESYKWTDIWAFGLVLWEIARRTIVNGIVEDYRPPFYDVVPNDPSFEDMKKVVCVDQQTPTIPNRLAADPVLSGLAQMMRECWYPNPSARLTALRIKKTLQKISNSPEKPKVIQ
Chain of NDR2 (Q9Y2H1 whole entry): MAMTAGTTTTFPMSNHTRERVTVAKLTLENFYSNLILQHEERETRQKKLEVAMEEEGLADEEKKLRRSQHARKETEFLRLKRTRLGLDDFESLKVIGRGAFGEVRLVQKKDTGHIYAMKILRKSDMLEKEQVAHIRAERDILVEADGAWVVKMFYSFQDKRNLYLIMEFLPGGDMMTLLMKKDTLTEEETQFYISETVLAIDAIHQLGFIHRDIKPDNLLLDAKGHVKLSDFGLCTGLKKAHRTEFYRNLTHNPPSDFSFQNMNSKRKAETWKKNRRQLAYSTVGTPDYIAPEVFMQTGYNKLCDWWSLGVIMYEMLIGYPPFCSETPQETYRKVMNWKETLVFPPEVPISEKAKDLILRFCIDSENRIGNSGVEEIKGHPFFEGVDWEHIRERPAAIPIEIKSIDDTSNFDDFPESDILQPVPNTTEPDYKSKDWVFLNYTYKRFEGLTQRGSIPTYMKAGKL
T3 sequence (Q52WX2 whole entry): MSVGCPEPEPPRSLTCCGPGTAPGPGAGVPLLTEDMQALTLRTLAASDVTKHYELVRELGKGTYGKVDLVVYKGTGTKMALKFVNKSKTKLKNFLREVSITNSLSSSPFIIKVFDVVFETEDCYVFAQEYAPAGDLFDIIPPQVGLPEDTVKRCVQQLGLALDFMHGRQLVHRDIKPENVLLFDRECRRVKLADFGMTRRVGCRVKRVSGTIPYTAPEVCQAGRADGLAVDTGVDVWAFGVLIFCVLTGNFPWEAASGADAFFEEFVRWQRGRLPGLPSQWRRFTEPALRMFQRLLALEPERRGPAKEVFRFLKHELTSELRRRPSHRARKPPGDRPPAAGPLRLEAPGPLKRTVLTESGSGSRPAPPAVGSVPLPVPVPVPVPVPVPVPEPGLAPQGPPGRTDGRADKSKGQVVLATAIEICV
Chain of CIT (O14578 whole entry): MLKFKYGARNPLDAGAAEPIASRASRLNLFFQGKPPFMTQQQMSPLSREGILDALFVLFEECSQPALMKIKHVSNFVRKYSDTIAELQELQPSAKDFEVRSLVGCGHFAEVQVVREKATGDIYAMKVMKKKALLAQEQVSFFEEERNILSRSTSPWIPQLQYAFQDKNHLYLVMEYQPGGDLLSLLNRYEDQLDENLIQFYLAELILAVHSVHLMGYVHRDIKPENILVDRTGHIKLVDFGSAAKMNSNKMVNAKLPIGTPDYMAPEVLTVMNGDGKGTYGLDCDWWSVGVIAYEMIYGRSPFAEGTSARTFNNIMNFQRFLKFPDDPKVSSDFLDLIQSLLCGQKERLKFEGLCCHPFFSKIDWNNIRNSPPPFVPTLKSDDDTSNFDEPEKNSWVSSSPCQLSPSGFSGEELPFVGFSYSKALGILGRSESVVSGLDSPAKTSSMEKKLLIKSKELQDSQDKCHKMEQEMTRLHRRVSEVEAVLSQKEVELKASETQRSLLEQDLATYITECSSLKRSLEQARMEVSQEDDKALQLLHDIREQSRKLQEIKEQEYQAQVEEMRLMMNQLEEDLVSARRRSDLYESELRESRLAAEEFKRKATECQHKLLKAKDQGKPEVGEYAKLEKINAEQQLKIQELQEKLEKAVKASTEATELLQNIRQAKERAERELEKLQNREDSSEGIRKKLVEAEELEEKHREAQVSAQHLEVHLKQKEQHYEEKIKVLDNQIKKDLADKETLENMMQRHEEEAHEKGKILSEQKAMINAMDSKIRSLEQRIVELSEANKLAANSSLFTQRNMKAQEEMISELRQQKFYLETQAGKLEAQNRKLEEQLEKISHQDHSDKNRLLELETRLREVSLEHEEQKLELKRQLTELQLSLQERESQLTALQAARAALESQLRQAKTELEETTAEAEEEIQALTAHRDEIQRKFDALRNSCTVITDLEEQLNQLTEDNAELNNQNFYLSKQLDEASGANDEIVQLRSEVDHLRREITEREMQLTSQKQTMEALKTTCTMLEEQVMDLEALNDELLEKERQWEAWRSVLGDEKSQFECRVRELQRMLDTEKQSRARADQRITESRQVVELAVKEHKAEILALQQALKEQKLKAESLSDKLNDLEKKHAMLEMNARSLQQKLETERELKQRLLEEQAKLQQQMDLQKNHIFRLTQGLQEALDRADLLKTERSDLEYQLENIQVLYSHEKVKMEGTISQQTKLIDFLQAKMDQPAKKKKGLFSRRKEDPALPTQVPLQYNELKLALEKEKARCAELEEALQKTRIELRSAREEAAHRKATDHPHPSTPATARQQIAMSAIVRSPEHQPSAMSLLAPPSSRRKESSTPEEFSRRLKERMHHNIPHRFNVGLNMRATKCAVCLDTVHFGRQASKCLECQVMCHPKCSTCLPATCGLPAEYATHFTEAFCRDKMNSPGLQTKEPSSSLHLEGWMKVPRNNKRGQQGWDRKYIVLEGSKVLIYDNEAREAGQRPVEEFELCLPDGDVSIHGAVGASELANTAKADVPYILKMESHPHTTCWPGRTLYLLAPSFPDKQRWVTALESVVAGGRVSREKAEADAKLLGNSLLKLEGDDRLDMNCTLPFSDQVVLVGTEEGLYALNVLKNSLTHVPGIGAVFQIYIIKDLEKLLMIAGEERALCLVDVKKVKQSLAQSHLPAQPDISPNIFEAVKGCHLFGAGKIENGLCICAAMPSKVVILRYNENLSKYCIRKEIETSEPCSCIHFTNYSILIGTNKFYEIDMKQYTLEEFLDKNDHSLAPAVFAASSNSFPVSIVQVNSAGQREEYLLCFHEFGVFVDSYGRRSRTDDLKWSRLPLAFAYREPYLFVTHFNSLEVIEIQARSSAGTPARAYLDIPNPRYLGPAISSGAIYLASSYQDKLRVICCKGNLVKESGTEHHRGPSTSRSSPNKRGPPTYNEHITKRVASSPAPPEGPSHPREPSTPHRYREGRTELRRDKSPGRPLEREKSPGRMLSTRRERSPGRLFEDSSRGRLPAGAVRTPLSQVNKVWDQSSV
T6 sequence (P51451 whole entry): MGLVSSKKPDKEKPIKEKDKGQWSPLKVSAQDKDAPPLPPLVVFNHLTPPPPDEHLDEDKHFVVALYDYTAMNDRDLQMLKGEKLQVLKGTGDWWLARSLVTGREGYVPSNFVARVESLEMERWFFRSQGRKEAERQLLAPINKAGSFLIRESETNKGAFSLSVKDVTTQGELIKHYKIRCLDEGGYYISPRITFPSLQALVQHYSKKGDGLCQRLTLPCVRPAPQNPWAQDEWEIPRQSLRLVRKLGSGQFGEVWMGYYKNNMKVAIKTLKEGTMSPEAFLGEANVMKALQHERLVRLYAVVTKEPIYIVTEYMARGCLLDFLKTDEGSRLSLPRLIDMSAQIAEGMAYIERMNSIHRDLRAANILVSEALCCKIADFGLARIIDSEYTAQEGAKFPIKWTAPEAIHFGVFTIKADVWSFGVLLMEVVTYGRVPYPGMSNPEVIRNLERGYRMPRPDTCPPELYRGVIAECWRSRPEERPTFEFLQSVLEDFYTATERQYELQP

Consider `CNc1c(-c2cnn([C@H]3CCN(C(C)=O)C[C@@H]3F)c2)cnc2[nH]cc(Cl)c12` [Compound 77, 1-((3S,4S)-4-(4-(3-chloro-4-(methylamino)-1H-pyrrolo[2,3-b]pyridin-5-yl)-1H-pyrazol-1-yl)-3-fluoropiperidin-1-yl)ethan-1-one], for which the remaining binding at 1 µM turned out to be 100% on ACVRL1; 21% at NDR2; 94% on CDKL5; 44% at SBK1; 26% at IRAK4; 86% at DDR2. Moreover, the remaining binding at 1 µM at BLK stood at 100%; at CIT, 6.8%.
In the case of `CNc1c(-c2ccc(C(=O)N3CCC(N4CCOCC4)CC3)cc2)cnc2[nH]cc(Cl)c12` [Compound 96, (4-(3-chloro-4-(methylamino)-1H-pyrrolo[2,3-b]pyridin-5-yl)phenyl)(4-morpholinopiperidin-1-yl)methanone], the remaining binding at 1 µM worked out at 100% on ACVRL1; 19% at NDR2; 92% on CDKL5; 63% at SBK1; 62% on IRAK4; 79% at DDR2. In addition, the remaining binding at 1 µM on BLK worked out at 100%; on CIT, 11%.
For `O=C(c1ccc(-c2cnc3[nH]cc(Cl)c3c2NC2CCCC2)cc1)N1CCC(N2CCOCC2)CC1` [Compound 101, (4-(3-chloro-4-(cyclopentylamino)-1H-pyrrolo[2,3-b]pyridin-5-yl)phenyl)(4-morpholinopiperidin-1-yl)methanone], the remaining binding at 1 µM on ACVRL1 was 100%; on NDR2, 63%; on CDKL5 it was 70%; on SBK1 it was 67%; at IRAK4, 100%; on DDR2, 100%. Besides, the remaining binding at 1 µM at BLK stood at 100%; at CIT it was 21%.
